{"source": "patent US11156599B2", "about": "“Assay for telomere length regulators” (The Johns Hopkins University, priority 2015, dated 2021)", "key": {"SL13 cells [1]": {"test_system": "SL13 cells", "experiment": "Telomere Southern blot after telomerase (mTR and mTERT) overexpression", "type": "cell-based, mouse", "conditions": "lentivirus expressing mTR and mTERT, 2 or 5 days in culture", "experimental": "To examine the role of ATM in telomere elongation by an independent method, telomerase was overexpressed in the cell line, in the presence of ATM inhibition. It has been shown that overexpressing telomerase elongates telomere lengths in human cells. Cells were treated with KU55933 and then transduced with a lentivirus expressing both mTR and mTERT and grown for 2 or 5 days in culture and telomere lengths were assayed by Southern blot. Telomere lengths in cells overexpressing telomerase were rapidly elongated in just 5 days (data not shown). […] In addition, as discussed below, when cells are grown for several days, ATR may also compensate for the loss of ATM. […]\n(§1) To measure telomere lengths by Southern blot, genomic DNA was extracted from cell pellets collected at different population doublings using the Puregene Core Kit A™ (Qiagen). […] Labeled probe was counted and 10^6 counts/ml (telomere probe) or 10^4 counts/ml (ladder) was denatured at 100° C. for 5 minutes and added to the pre-hybridization solution and hybridized overnight at 65° C. Membranes were washed 3× 15 minutes each in 6× SSC and 1% SDS at 65° C., and 3× 15 minutes each in 1× SSC and 1% SDS at 65° C. and exposed to a phosphorimager screen and detected on a Fuji phosphorimager. […]"}, "SL13 cells [2]": {"test_system": "SL13 cells", "experiment": "Telomere length by Southern blot in continuously growing SL13 cells", "type": "cell-based, mouse", "experimental": "Given that ATM inhibitor KU55933 treatment prevents telomere elongation by telomerase overexpression, whether KU55933 treatment shortens telomere lengths in continuously growing cells was tested. […] The distinct non-telomeric bands served as useful loading controls, confirming all lanes were equally loaded (FIG. 9B, pixel position 1 and 3).\nCell lines such as 293FT and HCT116 were grown in DMEM (Gibco) supplemented with 1% Penicillin/Streptomycin/Glutamine (PSG) and 10% heat inactivated FBS (Invitrogen). SL13 cells were grown in DMEM (Gibco) supplemented with 1% PSG and 10% Tet system approved FBS (Clontech, #631107). Final concentration of 2 μg/ml of doxycycline was added in the media to induce I-Sce1 expression. Typically cells were collected post 48 hours of doxcycline treatment. […]\nas §1"}, "human HCT116 cells": {"test_system": "human HCT116 cells", "experiment": "Telomere length in continuously growing HCT116 cells", "type": "cell-based", "conditions": "KU55933"}}, "data": [{"smiles": "O=c1cc(-c2cccc3c2Sc2ccccc2S3)oc(N2CCOCC2)c1", "note": "[KU55933]", "values": [{"measurement": "telomere elongation by telomerase overexpression", "setting": "SL13 cells [1]", "value": "significantly blocked the telomere elongation"}, {"measurement": "telomere lengths at various population doublings", "setting": "SL13 cells [2]; SL13 cells, 10 μM KU55933", "value": "gradually shortened with increasing cell PDs"}, {"measurement": "telomere lengths with increasing cell PDs", "setting": "human HCT116 cells", "value": "shortened significantly"}]}, {"smiles": "O=C(c1cc(Cc2n[nH]c(=O)c3ccccc23)ccc1F)N1CCN(C(=O)C2CC2)CC1", "note": "[Olaparib]", "values": [{"measurement": "telomere length at various PDs", "setting": "SL13 cells [2]; SL13 cells grown in the presence of Olaparib, Southern blot", "value": "gradually increased after 25 PDs"}]}]}
